Data on 16 compounds can be found in patent US20220324862A1, “PYRIDOPYRIMIDINONE COMPOUNDS” (Acerand Therapeutics (USA) Limited, priority 2021, published 2022).

For the assay, the target named is T1, protein-protein interaction between SOS1 and KRAS-G12D (Homo sapiens, UniProt Q07889).
T1 construct: The purified GST-SOS1 catalytic domain (residues 564-1049) was first diluted in assay buffer; made in house; host or cells: E. coli BL21 (DE3) for SOS1; E. coli BL21 carrying a BirA plasmid for KRAS-G12D
T1 sequence (Q07889 564-1049): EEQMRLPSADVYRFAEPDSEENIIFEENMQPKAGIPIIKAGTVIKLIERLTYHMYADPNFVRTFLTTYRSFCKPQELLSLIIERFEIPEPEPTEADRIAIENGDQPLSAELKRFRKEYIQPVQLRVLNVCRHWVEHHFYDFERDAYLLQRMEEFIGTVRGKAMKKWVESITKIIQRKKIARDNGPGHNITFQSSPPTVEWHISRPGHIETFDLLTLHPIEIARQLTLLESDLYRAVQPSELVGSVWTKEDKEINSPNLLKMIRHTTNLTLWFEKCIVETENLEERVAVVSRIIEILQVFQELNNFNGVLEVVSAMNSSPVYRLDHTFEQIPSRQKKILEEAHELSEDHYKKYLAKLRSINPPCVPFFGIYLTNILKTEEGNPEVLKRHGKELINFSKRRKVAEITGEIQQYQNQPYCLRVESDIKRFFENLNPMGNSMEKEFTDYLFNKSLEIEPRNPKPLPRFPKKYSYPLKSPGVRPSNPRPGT
Description: HTRF Based Protein-Protein Interaction Assay. The note with it: HTRF; GST-SOS1 2.5 nM, KRAS-G12D 100 nM, GDP 10 uM; read-out: IC50 value, inhibition of SOS1/KRAS-G12D protein-protein interaction. Format: binding. From the text:
A KRAS-G12D and SOS1 binding/interaction assay was designed to measure the interaction between KRAS-G12D and SOS1 proteins. Utilizing HTRF (Homogeneous Time-Resolved Fluorescence) technology, the assay enabled simple and rapid characterization of compound and protein interaction in a high throughput format. This assay was used to examine potency of the compounds in inhibiting the protein-protein interaction between SOS1 and KRAS-G12D. […] Low IC50 values are indicative of high potency of the SOS1 inhibitor compound to disrupt SOS1 and Kras-G12D interaction.
Protein Expression and Purification. The corresponding gene sequence to human SOS1 (residues 564-1049, UniProt ID: Q07889; SEQ ID NO: 2) was synthesized and fused in frame with GST expression vector. After the desired sequence was confirmed, plasmid containing the sequence was transformed into the E. coli strain BL21 (DE3). Bacteria were growing at 37° C. in LB media containing 50 μg/ml Kanamycin to give OD600 of 0.6-0.8. Then 0.2 mM IPTG was added to induce protein expression for 16 hours at 17° C. Bacteria were harvested by centrifugation and stored at −80° C. Bacteria pellets were resuspended in lysis buffer (25 mM Tris-HCl, 500 mM NaCl, 2 mM DTT, 2.3% sucrose, 0.3% dextran-10, 1 mM PMSF, pH 7.5) and lysed using high-pressure homogenizer. The lysate was cleared by centrifugation for 30 minutes (12000 rpm at 4° C.). The supernatant containing GST-SOS1 fragment was purified sequentially through Glutathione column and gel filtration (Hiload 16/600 Superdex […] column, Cytiva). The purified GST-SOS1 fragment was confirmed by SDS-PAGE and stored in 25 mM Tris-HCl, 100 mM NaCl, 1 mM DTT, 2.3% sucrose, 0.3% dextran-10, pH 7.5 at −80° C.
Kras-G12D Protein Purification. The sequence corresponding to human KRAS-G12D (residues 1-169, UniProt P01116-2; SEQ ID NO: 1) was synthesized and fused in frame with His-AVI-TEV vector. The plasmid was transformed into the E. coli strain BL21 (containing a plasmid that can generate BirA enzyme). Bacteria were growing at 37° C. in TB media containing 100 μg/ml ampicillin and 50 μg/ml Kanamycin to give OD600 of 0.6-0.8. The 0.5 mM IPTG and 50 mg/l biotin were added to induce protein expression for 16 hours at 25° C. Bacteria were harvested by centrifugation and stored at −80° C. Bacteria pellets were re-suspended in lysis buffer (20 mM Tris-HCl, 500 mM NaCl, 5 mM MgCl2, 2 mM […], 5% glycerol, pH 8.0) and lysed using high-pressure homogenizer. The lysate was cleared by centrifugation for 30 minutes (12000 rpm at 4° C.). The supernatant containing HIS-AVI-TEV-KRAS-G12D fragment was purified sequentially through Ni-NTA column (SMART), Streptactin column (SMART), and gel filtration (Hiload 16/600 Superdex 75 pg, GE). The purified HIS-AVI-TEV-KRAS-G12D fragment was confirmed by SDS-PAGE and stored in 50 mM HEPES-NaOH, 100 mM NaCl, 1 mM DTT, 5 mM MgCl2, pH 7.5 at −80° C.
Protein-Protein Interaction Assay. An assay buffer containing 50 mM HEPES, pH 7.5, 50 mM NaCl, 0.01% Brij-35, 1 mM TCEP, 0.1% BSA was prepared, and concentration series of test compounds were generated spanning from 0.5 nM to 10 μM over 10 3-fold serial dilutions in a 384-well assay plate at a volume of 20 pL. The purified GST-SOS1 catalytic domain (residues 564-1049) was first diluted in assay buffer and 5 μl of SOS1 (final concentration 2.5 nM in assay mixture) was directly dispensed into compound plates. After a spin down at 1000 RPM for 30 seconds, the SOS1/compound mixture was incubated at 25° C. for 15 minutes to allow the reaction between SOS1 and the compound. A KRAS-G12D mixture was prepared by incubation of avi-tagged Kras-G12D (residue 1-169) and GDP in assay buffer containing 10 mM MgCl2 at room temperature for 10 minutes. A KRAS-G12D and GDP mixture (5 μL) was added to the assay plate (final KRAS-G12D was 100 nM and GDP was 10 uM). The plate was centrifuged at 1000 rpm for 30 sec and incubated at 25° C. for 60 minutes. […]
A general note: Time-resolved FRET reads energy transfer from a long-lived donor to a nearby acceptor.

Turning to `C#C[C@@H](Nc1nc(C)nc2cc(=O)n(C3(C)CC3)cc12)c1cccc(C(F)(F)F)c1C` [Compound 18, (R)-2-methyl-4-((1-(2-methyl-3-(trifluoromethyl)phenyl)prop-2-yn-1-yl)amino)-6-(1-methylcyclopropyl)pyrido[4,3-d]pyrimidin-7(6H)-one], the IC50 is under 100 nM. Take `C#C[C@@H](Nc1nc(C)nc2cc(=O)n(C3CC4(CNC4)C3)cc12)c1cccc(C(F)F)c1C` [Compound 37, (R)-4-((1-(3-(difluoromethyl)-2-methylphenyl)prop-2-yn-1-yl)amino)-2-methyl-6-(2-azaspiro[3.3]heptan-6-yl)pyrido[4,3-d]pyrimidin-7(6H)-one]: the IC50 was under 100 nM. Consider `C#C[C@@H](Nc1nc(C)nc2c(F)c(=O)n(C3(C(F)F)CC3)cc12)c1cccc(C(F)F)c1F` [Compound 27, (R)-4-((1-(3-(difluoromethyl)-2-fluorophenyl)prop-2-yn-1-yl)amino)-6-(1-(difluoromethyl)cyclopropyl)-8-fluoro-2-methylpyrido[4,3-d]pyrimidin-7(6H)-one], for which the IC50 is under 100 nM. Consider `C#C[C@@H](Nc1nc(C)nc2cc(=O)n(C3(C(F)F)CC3)cc12)c1cccc(C(C)(F)F)c1F` [Compound 25, (R)-4-((1-(3-(1,1-difluoroethyl)-2-fluorophenyl)prop-2-yn-1-yl)amino)-6-(1-(difluoromethyl)cyclopropyl)-2-methylpyrido[4,3-d]pyrimidin-7(6H)-one], for which the IC50 is under 100 nM.

As to `C#C[C@@H](Nc1nc(C)nc2cc(=O)n(C3(C4CCOC4)CC3)cc12)c1cccc(C(F)(F)F)c1C` (stereo partly drawn) [Compound 34, 2-methyl-4-(((R)-1-(2-methyl-3-(trifluoromethyl)phenyl)prop-2-yn-1-yl)amino)-6-(1-(tetrahydrofuran-3-yl)cyclopropyl)pyrido[4,3-d]pyrimidin-7(6H)-one], the IC50 was under 100 nM.

On to `C=C[C@@H](Nc1nc(C)nc2cc(=O)n(C3(C)CC3)cc12)c1cccc(C(F)(F)F)c1C` [Compound 22, (R)-2-methyl-4-((1-(2-methyl-3-(trifluoromethyl)phenyl)allyl)amino)-6-(1-methylcyclopropyl)pyrido[4,3-d]pyrimidin-7(6H)-one], for which the IC50 was under 100 nM. Consider `C#C[C@@H](Nc1nc(C)nc2cc(=O)n(C3(C#N)CC3)cc12)c1cccc(C(F)(F)F)c1C` [Compound 6, (R)-1-(2-methyl-4-((1-(2-methyl-3-(trifluoromethyl)phenyl)prop-2-yn-1-yl)amino)-7-oxopyrido[4,3-d]pyrimidin-6(7H)-yl)cyclopropane-1-carbonitrile], for which the IC50 is under 100 nM. `C#C[C@@H](Nc1nc(C)nc2cc(=O)n(C3(C)CC3)cc12)c1cccc2c1OCC2(F)F` [Compound 21, (R)-4-((1-(3,3-difluoro-2,3-dihydrobenzofuran-7-yl)prop-2-yn-1-yl)amino)-2-methyl-6-(1-methylcyclopropyl)pyrido[4,3-d]pyrimidin-7(6H)-one]: the IC50 is under 100 nM. As for `C#C[C@@H](Nc1nc(C)nc2cc(=O)n(C(C)C(F)(F)F)cc12)c1cccc(C(F)(F)F)c1C` (mixture of isomers) [Compound 8, 2-methyl-4-(((R)-1-(2-methyl-3-(trifluoromethyl)phenyl)prop-2-yn-1-yl)amino)-6-(1,1,1-trifluoropropan-2-yl)pyrido[4,3-d]pyrimidin-7(6H)-one], the figure is under 100 nM; as for `C#C[C@@H](Nc1nc(C)nc2cc(=O)n(C3(C)CCOC3)cc12)c1cccc(C(F)(F)F)c1C` (stereo partly drawn) [Compound 7, 2-methyl-4-(((R)-1-(2-methyl-3-(trifluoromethyl)phenyl)prop-2-yn-1-yl)amino)-6-(3-methyltetrahydrofuran-3-yl)pyrido[4,3-d]pyrimidin-7(6H)-one], under 100 nM. With `C#C[C@@H](Nc1nc(C)nc2cc(=O)n(C3(C)CC3)cc12)c1cccc2c1CCC2(F)F` [Compound 23, (R)-4-((1-(1,1-difluoro-2,3-dihydro-1H-inden-4-yl)prop-2-yn-1-yl)amino)-2-methyl-6-(1-methylcyclopropyl)pyrido[4,3-d]pyrimidin-7(6H)-one], the IC50 was under 100 nM. With `C#C[C@@H](Nc1nc(C)nc2c(F)c(=O)n(C3(C(F)F)CC3)cc12)c1cccc(C(F)(F)F)c1C` [Compound 14, (R)-6-(1-(difluoromethyl)cyclopropyl)-8-fluoro-2-methyl-4-((1-(2-methyl-3-(trifluoromethyl)phenyl)prop-2-yn-1-yl)amino)pyrido[4,3-d]pyrimidin-7(6H)-one], the IC50 is under 100 nM. Consider `C#C[C@@H](Nc1ncnc2cc(=O)n(C3(C(F)F)CC3)cc12)c1cccc(C(F)F)c1C` [Compound 40, (R)-4-((1-(3-(difluoromethyl)-2-methylphenyl)prop-2-yn-1-yl)amino)-6-(1-(difluoromethyl)cyclopropyl)pyrido[4,3-d]pyrimidin-7(6H)-one], for which the IC50 was under 100 nM. In the case of `C#C[C@@H](Nc1ncnc2c1cc(C1(F)CCN(C(C)=O)CC1)c(=O)n2C)c1cccc(C(F)F)c1F` [Compound 47, 6-(1-acetyl-4-fluoropiperidin-4-yl)-4-{[(1R)-1-[3-(difluoromethyl)-2-fluorophenyl]prop-2-yn-1-yl]amino}-8-methyl-7H,8H-pyrido[2,3-d]pyrimidin-7-one] it was under 100 nM; in that of `C#C[C@@H](Nc1nc(C)nc2cc(=O)n(C3(C)CC3)cc12)c1cccc(C(F)F)c1F` [Compound 20, (R)-4-((1-(3-(difluoromethyl)-2-fluorophenyl)prop-2-yn-1-yl)amino)-2-methyl-6-(1-methylcyclopropyl)pyrido[4,3-d]pyrimidin-7(6H)-one], under 100 nM. In the case of `C#C[C@@H](Nc1nc(C)nc2cc(=O)n(C3(C(F)F)CC3)cc12)c1cccc(Br)c1F` [Compound 41, (R)-4-((1-(3-bromo-2-fluorophenyl)prop-2-yn-1-yl)amino)-6-(1-(difluoromethyl)cyclopropyl)-2-methylpyrido[4,3-d]pyrimidin-7(6H)-one], the IC50 was in the range of 100 to 200 nM.
